The test system of one data set is MDA-MB-231. The data set is described as follows: Western blotting and RT-PCR expression, MDA-MB-231. It counts as cell-based, human. The note with it: 75 nM; 24, 48 and 72 h. The text has this: Logarithmic transformation of the variable was applied before the ANOVA test if required. As shown in FIG. 16A-C, Western blots are representative of three independent experiments where each bar and vertical line represents the mean±SEM, respectively (n=3). As shown in FIG. 15D-15G, C-MYC protein and mRNA levels were unchanged by Compound (1-1) treatment in all the three cell lines.
CDKN1A (p21) mRNA levels were increased in all three cell models (p<0.001). […] Significant differences in the mRNA levels were determined by one-way ANOVA test (p<0.01) followed by SNK a posteriori test (*p<0.05, **p<0.01, […]). Logarithmic transformation of the variable was applied before the ANOVA test if required. Each bar and vertical line represents the mean±SEM, respectively (n=3). Western blots are representative of 3 independent experiments.
A general note: In western blotting, separated proteins are transferred to a membrane and probed.

The next data set can be described thus: Oral exposure in the rat. The data set is classed as in vivo, Sprague Dawley rats. The note with it: 1 mg/kg intravenous. How it is done:
The oral bioavailability of three formulations of solid dispersions of compound (1-1) was determined in rats. The three dispersions chosen were the 25% dispersion of compound (1-1) in PVP, the 25% dispersion of compound (1-1) in HPMCAS-MG, and the 50% dispersion of compound (1-1) in HPMCAS-MG. The animals used in the study were Specific Pathogen Free (SPF) Hsd: Sprague Dawley rats obtained from the Central Animal Laboratory at the University of Turku, Finland. The rats were originally purchased from Harlan, The Netherlands. The rats were female and were ten weeks of age, and 12 rats were used in the study. […]
The oral dosing solutions containing the 25% dispersion of compound (1-1) in PVP, the 25% dispersion of compound (1-1) in HPMCAS-MG, and the 50% dispersion of compound (1-1) in HPMCAS-MG were prepared by adding a pre-calculated amount of sterile water for injection to containers holding the dispersion using appropriate quantities to obtain a concentration of 0.75 mg/mL of compound (1-1). […]
Pharmacokinetic parameters were calculated with the Phoenix WinNonlin software package (version 6.2.1, Pharsight Corp., CA, USA) with standard noncompartmental methods. The elimination phase half-life (t1/2) was calculated by least-squares regression analysis of the terminal linear part of the log concentration-time curve. […]

A further data set concerns MDA-MB-468. The data set is described as follows: MTT proliferation assay, MDA-MB-468. Particulars: for Emax / GI50: Homo sapiens.
For data set [1], the system named is MDA-MB-231 nude mice-derived xenografts. The data set is described as follows: MDA-MB-231 xenografts in nude mice. The data set is classed as in vivo. The protocol:
In vivo assays were performed in 8-week-old female MDA-MB-231 nude mice-derived xenografts. 10×10^6 cells were injected, when tumor volume reached 100 mm^3, mice were randomized to 4 groups (n=9): 1) vehicle; 2) 50 mg/kg Compound (1-1) (BID, po); 3) 2 mg/kg of everolimus (3 time a week, ip); 4) combination Compound (1-1) and everolimus; 4 weeks treatment.
Symbols with • indicate significant differences between treatment vs. vehicle-treated mice (p<0.05). * indicates a significant difference in the tumor mass between the combination treated animals and the two single agent groups (*p<0.05, **p<0.01 and ***p<0.001). Results represent the mean±SEM (during the treatment period, n=9). Variation of animal body weight during treatment is illustrated in FIG. 18B. […] The T/C ratio was 39% after 10 days of combination treatment, with an optimal value of 21% on day 23. Compound (1-1) can be used for the treatment of TNBC, either alone or in combination with mTOR inhibitors.

Where [2] appears, read: MDA-MB-468, 48 h, 48 h exposure, normoxia.
[3] abbreviates: MDA-MB-468, 72 h, 72 h exposure, hypoxia (0.1% O2).
Setting [4] is: Compound (1-1) 50 mg/kg BID po, everolimus 2 mg/kg 3 time a week ip, 4 weeks treatment.

This note sets out measurements from patent publication US9968619B2, “Method of treating triple-negative breast cancer using thienotriazolodiazepine compounds” (ONCOETHIX GMBH, priority 2014, dated 2018).

On to `Cc1sc2c(c1C)C(c1ccc(Cl)cc1)=N[C@@H](CC(=O)Nc1ccc(O)cc1)c1nnc(C)n1-2` [Compound (1-1), 2-[(6S)-4-(4-chlorophenyl)-2,3,9-trimethyl-6H-thienol[3,2-f]-[1,2,4]triazolo[4,3-a][1,4]diazepin-6-yl]-N-(4-hydroxyphenyl)acetamide dihydrate], for which, in the data set with MDA-MB-231, the BRD2 levels entry is “increased”. Further, the CI/F in “Oral exposure in the rat” was found to be 13.4 mL/min/kg. The Emax was 53% with MDA-MB-468 (MDA-MB-468, 48 h, 48 h exposure, hypoxia (0.1% O2)); below 10% with MDA-MB-468 (setting [2]); 77% with MDA-MB-468 (setting [3]); 42% in the data set with MDA-MB-468 (MDA-MB-468, 72 h, 72 h exposure, normoxia). In addition, the 50% growth inhibitory concentration (GI50) (as a rule, the concentration at which growth is held to half of that of the control) is 258 nM in the data set on MDA-MB-468 (MDA-MB-468, 48 h, 48 h exposure, hypoxia (0.1% O2), * = apparent value); above 6000 nM with MDA-MB-468 (setting [2]); 296 nM in the data set on MDA-MB-468 (setting [3]); 448 nM with MDA-MB-468 (MDA-MB-468, 72 h, 72 h exposure, normoxia, * = apparent value). In addition, in the data set on MDA-MB-468 (hypoxia (0.1% O2) vs normoxia, MTT assay and cell counting), the “effect of hypoxia on antiproliferative activity” value is “significantly (p<0.05) increased”. Moreover, the body weight entry in data set [1] (50 mg/kg BID po, after 19 days of treatment) is recorded as “without body weight loss”. Further, the “best T/C %” value in data set [1] (setting [4]) was 40.7%. Moreover, the “tumor mass with respect to vehicle-treated mice” value in data set [1] (setting [4]) is “significant (p<0.05) reduction”.
